Measured values from patent US20190350909A1, “COMPOSITIONS AND METHODS FOR MODULATING HAIR GROWTH” (priority 2018, published 2019).
“Also recorded” adds a separate entry of the source.

What was measured:
Format in all cases: in vivo, C57BL/6 mice
[1] = system: lactate dehydrogenase (Ldh); assay: Ldh activity assay (in situ and plate reader) on treated skin/epidermis; conditions: epidermis isolated from treated male or female animals (FIG. 4A)
Procedure: (§1) Wildtype male and female 49-day old C57BL/6 mice were obtained from Jackson Laboratories for all topical experiments. All animals were maintained in UCLA's Division of Laboratory Medicine (DLAM)-approved pathogen-free barrier facilities and procedures were performed using protocols that adhere to the standards of the UCLA Animal Research Committee (ARC), Office of Animal Research Oversight (OARO), and the National Institutes of Health (NIH).
(§2) All drugs were suspended in DMSO and aliquoted at approximately 5 times IC50 or EC50 for the purposes of penetrating the epidermal barrier upon in vivo application. Aliquots were then mixed with the appropriate volume of Premium Lecithin Organogel (PLO) Base (Transderma Pharmaceuticals Inc.) and topically applied onto the shaved dorsal skin of 49 day old telogen-stage mice. Three experiment timepoints were used: acute treatment (two doses across 48 hours), 1 week treatment (three doses across five days) or long-term studies (one dose three times a week for approximately 1.5 weeks). Full-thickness dorsal skin was collected for histological analysis, cryosectioning, RNA isolation, and/or for epidermal stem cell isolation according to well-established FACS protocol.

[2] = system: hair cycle; assay: Hair cycle analysis after topical treatment of shaved dorsal skin of telogen-stage mice; conditions: topical treatment during telogen, macroscopic and H&E follicle morphology (FIG. 2A-2C)
Procedure: as §1, §2
Hair cycles were assessed macroscopically by observational and photographic documentation. A scale was established to grade hair cycle stage: 1) telogen (pink, white skin when dorsally shaved); 2) pigmentation (broad blue/grey pigment spots/patches on shaved dorsal area); 3) hair growth (dark pigmentation coupled with small patches of fur); 4) anagen (dark, full patches of fur within dorsal area) in relation to number of doses and elapsed time of treatment. H&E images of all treatment conditions were imaged at 20× magnification to assess morphological changes in control and treated skin. Hair cycle stages were also evaluated by follicular morphology into respective telogen, telogen-to-anagen transition, or anagen categories.
A set of full-thickness skin samples were obtained from post-mortem tissue harvesting, fixed overnight in 4% paraformaldehyde, and then dehydrated for paraffin embedding and slide generation; hematoxylin and eosin staining according to standard protocol. For immunohistochemistry, formalin-fixed, paraffin-embedded tissue slides were cleared and rehydrated through a series of ethanol washes. Antigen retrieval (20 min in pressure cooker, microwaved at 100 power) was performed with 10 mM citrate. Slides were incubated in hydrogen peroxide (30 min at 4 C) and then blocked with 10% goat serum/0.1% tween for 1 hour at room temperature. Primary antibodies were added and incubated overnight. The following antibodies were used—rabbit pCreb (Cell Signaling 9198, 1:800); rabbit Sox9 (Abcam 185966, 1:800); rabbit Ki67 sp6 (Abcam 16667, 1:50); rabbit PCNA (Cell Signaling 13110, 1:700); rabbit cFos (Abcam 7963, 1:100). Sections were washed the following day with 0.1% PBST and incubated with rabbit secondary HRP-labeled polymer (Dako) for 1 hour at room temperature, and then quickly washed with 0.1% PBST and PBS. AEC chromogen (Vector) was used for the colometric development reaction. Slides were then briefly counterstained with hemotoxylin, mounted with Faramount Aqueous Mounting Media (Dako) and sealed for subsequent visualization by light microscopy.
Bright-field immunohistochemistry and hematoxylin/eosin-stained images were captured using an Olympus BX51 light microscope at 20× magnification or 40× using oil immersion.

[3] = system: Creb (pCreb); assay: Immunohistochemistry of treated skin for Creb signaling, HFSC and proliferation markers
Procedure: as §1
as §2, with “protocol. […]” for “protocol.”

[4] = system: Ldha protein, pCreb; assay: Western blot of epidermis from treated animals for pCreb and Ldha protein; conditions: epidermis from treated animals (FIG. 4C)
Procedure: Wildtype male and female 49-day old C57BL/6 mice were obtained from Jackson Laboratories for all topical experiments. All animals were maintained in UCLA's Division of Laboratory Medicine (DLAM)-approved pathogen-free barrier facilities and procedures were performed using protocols that adhere to the standards of the UCLA Animal Research Committee (ARC), Office of Animal Research Oversight (OARO), and the National Institutes of Health (NIH). […] All drugs were suspended in DMSO and aliquoted at approximately 5 times IC50 or EC50 for the purposes of penetrating the epidermal barrier upon in vivo application. […] Three experiment timepoints were used: acute treatment (two doses across 48 hours), 1 week treatment (three doses across five days) or long-term studies (one dose three times a week for approximately 1.5 weeks). Full-thickness dorsal skin was collected for histological analysis, cryosectioning, RNA isolation, and/or for epidermal stem cell isolation according to well-established FACS protocol.

| SMILES | relative Ldh activity in lysed epidermis [1] | effect on hair cycle progression / reentry into anagen [2] | activation of Creb (pCreb) by immunohistochemistry ([3]; acute 48 hours topical treatment, HFSCs and IFE (FIG. 3B)) | canonical Creb target expression (cFos staining) ([3]; acute treatment (FIG. 3B)) | effect on hair cycle progression / reentry into anagen ([2]; listed as H-89) | Creb activation (pCreb) (western blot) [4] |
| --- | --- | --- | --- | --- | --- | --- |
| COc1ccccc1NC(=O)CSc1nc2c(cc1C#N)=CC1OCCOC1C=2 (stereo not shown) [#44] | high Ldh activity | accelerated reentry into anagen; also recorded: strongly accelerate the hair cycle; also recorded: accelerated hair growth | activation of Creb (pCreb) in HFSCs (and IFE) | induced levels of transcript for canonical Creb targets |  |  |
| COc1ccc(NC(=O)CSc2nc3c(cc2C#N)=CC2OCCOC2C=3)c(OC)c1 (stereo not shown) [#61] |  | accelerated reentry into anagen; also recorded: strongly accelerate the hair cycle; also recorded: accelerated hair growth |  |  |  |  |
| CCOc1ccc(OCC)c(NC(=O)CSc2nc3c(cc2C#N)=CC2OCCOC2C=3)c1 (stereo not shown) [#62] |  | strongly accelerate the hair cycle |  |  |  |  |
| O=S(=O)(NCCNC/C=C/c1ccc(Br)cc1)c1cccc2cnccc12 [H89, reference compound] | did not demonstrate altered Ldh activity | slowed hair cycle progression; also recorded: delays reentry into anagen; also recorded: slowed the hair cycle dramatically |  |  | delayed reentry into anagen | inhibition of Creb |
